Data: ChEMBL document CHEMBL5608173, “Discovery of novel natural-product-derived mutant isocitrate dehydrogenases 1 inhibitors: Structure-based virtual screening, biological evaluation and structure-activity relationship study” (Eur J Med Chem, 2024)
pEC50: −log10 of the molar value.

How the values were obtained:
[1] = tested on: HT-1080; assay: Cell cycle arrest in human HT-1080 cells assessed as S phase cells at 8 uM incubated for 24 hrs by PI staining based flow cytometric analysis (reference value: 18.3 %); assay type: functional
[2] = target: Isocitrate dehydrogenase [NADP] cytoplasmic (Homo sapiens, UniProt O75874, R132C); assay: Inhibition of IDH1 R132C mutant in human HT-1080 cells assessed as reduction in 2-HG level incubated for 48 hrs in presence of NAD+ by resazurin fluorescence dye based Sigma MAK320-1 assay kit analysis; assay type: cell-based
Sequence of Isocitrate dehydrogenase [NADP] cytoplasmic (O75874 2-414 R132C limits assumed): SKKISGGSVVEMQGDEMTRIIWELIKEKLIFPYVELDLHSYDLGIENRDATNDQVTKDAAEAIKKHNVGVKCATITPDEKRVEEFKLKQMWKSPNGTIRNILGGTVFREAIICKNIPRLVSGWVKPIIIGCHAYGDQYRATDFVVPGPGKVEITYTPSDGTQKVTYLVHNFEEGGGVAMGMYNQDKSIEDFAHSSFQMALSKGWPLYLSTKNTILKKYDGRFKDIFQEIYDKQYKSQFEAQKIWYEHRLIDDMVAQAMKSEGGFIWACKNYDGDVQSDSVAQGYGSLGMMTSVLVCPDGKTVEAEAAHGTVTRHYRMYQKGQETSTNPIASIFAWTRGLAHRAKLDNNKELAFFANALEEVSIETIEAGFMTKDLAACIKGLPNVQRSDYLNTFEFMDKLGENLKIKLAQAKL

pEC50 [2]: 7.08
Compound: COc1cc(O)c(-c2cc(-c3ccc(O)cc3)nc(N3CCNCC3)n2)cc1CC=C(C)C
Activity [1]: 32.3%
